In patent US10961222B2, “Chemical compound of isocitrate dehydrogenase inhibitor, and application thereof” (NANJING SANHOME PHARMACEUTICAL CO., LTD., priority 2016, dated 2021):

Target: T1, U87-MG cell line of overexpressed mutant IDH2 (R140Q) (Homo sapiens, UniProt P48735, R140Q)
T1 construct: expressed in transfected cells
T1 sequence (P48735 40-452 R140Q): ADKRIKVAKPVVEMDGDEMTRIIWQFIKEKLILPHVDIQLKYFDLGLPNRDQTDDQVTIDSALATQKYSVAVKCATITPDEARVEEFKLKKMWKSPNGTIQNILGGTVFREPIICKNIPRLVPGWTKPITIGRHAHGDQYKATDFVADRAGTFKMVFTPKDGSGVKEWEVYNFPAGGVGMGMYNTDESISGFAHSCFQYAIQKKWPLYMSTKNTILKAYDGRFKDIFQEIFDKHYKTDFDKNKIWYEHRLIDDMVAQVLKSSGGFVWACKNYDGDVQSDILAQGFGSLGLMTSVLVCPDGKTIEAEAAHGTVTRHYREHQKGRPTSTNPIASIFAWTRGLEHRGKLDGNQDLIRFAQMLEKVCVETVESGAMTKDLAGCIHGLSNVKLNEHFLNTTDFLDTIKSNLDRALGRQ
Test: Cell activity in vitro: 2-HG in culture supernatant of U87-MG (IDH2-R140Q) cells by LC-MS/MS
Format: cell-based
Experimental: 1.2 Cells: human glioblastoma cell line U87-MG, purchased from the American Type Culture Collection (ATCC);
Cell recovery: U87-MG (IDH2-R140Q) cells and U87-MG cells were put into a 37° C. water bath, then transferred to 15 mL of pre-warmed medium, centrifuged at 1000 rpm for 5 minutes, and the medium was discarded. The cells were resuspended in 15 mL of fresh medium, transferred to a T75 flask and cultured in a 37° C. incubator with 5% CO2. After 24 hours, the medium was changed to fresh medium.
Cell passage: The above-mentioned recovered cells were transferred to a 50 mL sterile centrifuge tube, centrifuged at 1000 rpm for 5 minutes, and the medium was discarded. The cells were resuspended evenly and counted. The cell density was adjusted appropriately in a 15 mL fresh medium, and then added to T75 culture flask. The culture flask was incubated in an incubator with 5% CO2 at 37° C.
After cells grown to a relatively high density in the culture dish, the cells were trypsinized, resuspended in medium (MEM+10% FBS), and counted. After adjusting the cell concentration, the resuspended cells were seeded in a 96-well plate at 5×10^3 cells per well. After inoculation, the cells were cultured for 24 hours until the cells adhered. The medium were sucked out, and the medium containing gradient concentration of compound was added, 100 μL per well. The cells were further cultured for 72 hours. The s 20 μL of upernatant was taken and put into a 2 mL 96-well sample-processing plate. 480 μL of dilution solution was added and shaken for mixing, and then centrifuged at 4500 rpm for 5 minutes. 200 μL of supernatant was transferred for LC-MS/MS injection analysis.
Column: Shim-pack XR-ODS 30L*2.0; mobile phase: acetonitrile-0.2% ammonia, 5 mM ammonium acetate aqueous solution; column temperature: 30° C.; flow rate: 0.4 mL/min; gradient elution conditions are as follows: […]
Atmospheric […] chemical ionization (APCI) was used. Source parameters was set as follows: IonSpray Voltage/IS-4500V; auxiliary gas 1 (Ion Source Gas 1/GS 1, N2), 55Arb; auxiliary gas 2 (Ion Source Gas 2, N2), 55Arb; auxiliary gas heating temperature (Temperature/TEM), 500° C.; curtain gas/CUR, 25Arb; collision gas/CAD, N2, 8 Pa.
Multi-ion reaction monitoring (MRM) in negative ion mode (Negative) was used. […] The internal standard (IS) MRM parameters: parent ion (Q 1 Mass), 178.0 Da; daughter ion (Q3 Mass), 149.0 Da; Decluster Potential (DP), −51V; collision voltage (Collision Energy/CE), −17 eV
By determining the 2-HG content in the cell culture supernatant of each well using LC-MS/MS, the mutant enzyme activity (2-HG remaining compared to untreated %) was calculated. The calculation formula: 2-HG remaining compared to untreated %=(Measured 2-HG level—U87-MG control 2-HG level)/(Untreated 2-HG level—U87-MG control 2-HG level)×100. […] Data were processed by GraphPad Prism v5.0 software and fitted to obtain IC50.

For CC(C)(O)CNc1nc(Nc2ccnc(C(F)(F)F)c2)nc(-c2cccc(C(F)(F)F)n2)n1 [AG-221, 2-methyl-1-(4-(6-(trifluoromethyl)pyridin-2-yl)-6-(2-(trifluoromethyl)pyridin-4-ylamino)-1,3,5-triazin-2ylamino)propan-2-ol, reference compound], the IC50 was 30.2 nM.
